Literature values as cited in patent US20110104137A1, “ADJUNCTS AND COMPLEXES FOR IMPROVING HMG-CoA REDUCTASE INHIBITOR (STATIN) AND SELECTIVE PHOSPHODIESTERASE 5 INHIBITOR THERAPY” (ChronoRX LLC, an Alaska Limited Liability Company, priority 2009, published 2011).
Blank lines part the entries; values can stand above or below the compound they belong to.

Legend:
[1] = in vivo
ADMA = settings: in vivo
[2] = rosuvastatin 40 mg/d
[3] = no hyperlipidemia, elevated high-sensitivity CRP
[4] = oral L-CAR; placebo group 26.0%
Lp(a) = settings: patients with otherwise elevated levels
NF-kappaB = settings: in vitro and ex-vivo
[5] = atorvastatin 80 mg versus pravastatin 40 mg, after ACS
[6] = 12 months, IVUS
PGI2 = settings: administered therapeutic dose, humans
CETP = target: T1, CETP (Homo sapiens, UniProt P11597)
T1 construct: Circulating CETP mediates the transfer of cholesteryl esters from HDL to LDL; host or cells: patients (endogenous plasma CETP, in vivo)
T1 sequence (P11597 18-493): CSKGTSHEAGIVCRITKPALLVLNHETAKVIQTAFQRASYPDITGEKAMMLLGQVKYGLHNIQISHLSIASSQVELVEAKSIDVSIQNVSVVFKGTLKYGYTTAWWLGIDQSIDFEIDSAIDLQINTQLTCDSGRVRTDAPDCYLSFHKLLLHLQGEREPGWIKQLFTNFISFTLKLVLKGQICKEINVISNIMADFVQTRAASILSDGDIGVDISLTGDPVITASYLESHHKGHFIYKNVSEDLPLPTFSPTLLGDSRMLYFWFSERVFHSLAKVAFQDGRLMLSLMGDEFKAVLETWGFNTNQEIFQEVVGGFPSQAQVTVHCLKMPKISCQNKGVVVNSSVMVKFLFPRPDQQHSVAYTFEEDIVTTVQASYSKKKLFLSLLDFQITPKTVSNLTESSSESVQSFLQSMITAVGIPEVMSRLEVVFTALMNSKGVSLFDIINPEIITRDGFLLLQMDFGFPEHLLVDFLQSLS

[7] = monotherapy and in combination with a statin

interaction with warfarin [1]: potentiate warfarin
Structure (SMILES): CC(C)c1nc(N(C)S(C)(=O)=O)nc(-c2ccc(F)cc2)c1/C=C/[C@@H](O)C[C@@H](O)CC(=O)O [rosuvastatin]
effect on plasma ADMA (ADMA): decrease in plasma ADMA
average LDL achieved ([2]; 349 patients): 60.8 mg/dL
increase in HDL ([2]; 349 patients): 14.7%
regression of atherosclerosis ([2]; intravascular ultrasound): significant regression of atherosclerosis
incidence of major cardiovascular events [3]: significantly reduced the incidence of major cardiovascular events

interaction with warfarin [1]: potentiate warfarin
Structure (SMILES): CC[C@H](C)C(=O)O[C@H]1C[C@@H](C)C=C2C=C[C@H](C)[C@H](CC[C@@H]3C[C@@H](O)CC(=O)O3)[C@H]21 [lovastatin]

More lines, now with the values behind:

Structure (SMILES): CC(=O)O[C@H](CC(=O)[O-])C[N+](C)(C)C [L-CAR, Acetyl-L-carnitine]
total cardiac events, including cardiac death and nonfatal infarction [4]: 15.6%
plasma Lp(a) (Lp(a)): reduce plasma Lp(a)

Structure (SMILES): O=C(O)CCCCC1CCSS1 (stereo not shown) [LA, 1,2-dithiolane-3-pentanoic acid]
NF-kappaB activation (NF-kappaB): inhibits NF-kappaB activation

Structure (SMILES): CC(C)c1c(C(=O)Nc2ccccc2)c(-c2ccccc2)c(-c2ccc(F)cc2)n1CC[C@@H](O)C[C@@H](O)CC(=O)O [atorvastatin]
interaction with warfarin [1]: potentiate warfarin
rate of hospitalization for HF [5]: significantly reduced the rate of hospitalization for HF
progression of mean plaque volume or thickness ([6]; 131 patients, placebo 9.6): 1.2 mm^3
hyperechogenicity of the plaque ([6]; compared to placebo): increased the hyperechogenicity of the plaque
PGI2 signaling (PGI2): does not significantly decrease PGI2 signaling

Structure (SMILES): CCOC(=O)N1c2ccc(C(F)(F)F)cc2[C@@H](N(Cc2cc(C(F)(F)F)cc(C(F)(F)F)c2)C(=O)OC)C[C@H]1CC [torcetrapib]
mortality (CETP; mean follow-up of 550 days, cardiovascular and noncardiovascular causes): significant increase in mortality
HDL-CHOL levels (CETP; [7]): markedly increased HDL-CHOL levels
LDL-CHOL (CETP; [7]): reduced LDL-CHOL
mean particle size of HDL and LDL (CETP; [7]): increased the mean particle size of both HDL and of LDL
